According to patent US20230158015A1, “DRUG COMBINATIONS FOR INHIBITING INFLAMMATION AND SRC KINASE ACTIVATION FOLLOWING INVASIVE SURGICAL PROCEDURES” (SINTETICA S.A., priority 2020, published 2023):
Read-outs that look alike come from different tables or passages of the source.

Tests used:
p-Src / total Src [1] = test: Total Src and p-Src expression in Panc1 human pancreatic cancer cell line (Western blot); assay type: cell-based; conditions: 10 µM lidocaine, 100 nM methylnaltrexone or both, time points up to 6 hours, fresh media
Protocol: (§1) • P-Src-Tyr416 (GeneTex # GTX81151) 1:2000 in 5% bovine serum albumin, at room temperature, 4 hours • Total Src (CST # 2108S) 1:3000 in 5% bovine serum albumin, at room temperature, 4 hours
Example 12 evaluated the effect of 10 µM lidocaine (L), 100 nM methylnaltrexone (M) and the combination of 10 µM lidocaine + 100 nM methylnaltrexone (L+M) on total Src and p-Src expression in a human pancreatic cancer cell line (Panc1) at multiple time points up to 6 hours, in fresh media. Experimental conditions were identical to Example 10.

p-Src / total Src [2] = test: Total Src and p-Src expression in AsPc 1 human pancreatic cancer cell line (Western blot); assay type: cell-based
Protocol: (§2) Example 10 evaluated the effect of 10 µM lidocaine (L), 100 nM methylnaltrexone (M) and the combination of 10 µM lidocaine + 100 nM methylnaltrexone (L+M) for 1 hour on total Src and p-Src expression in a human pancreatic cancer cell line (AsPc 1).
as §1

p-Src / total Src [3] = assay type: cell-based, mouse
Protocol: On day 1, mouse KPC-105 cells were cultured until 300,000 cells per well in a 6 well plate were obtained. On day 2, the cells were treated with 0, 0.5, 1,5, 10, 15, 30, 50 and 100 µM lidocaine for 30 minutes. Plates were then collected and washed with phosphate buffered saline and stored at -80° C. Cells were subsequently lysed with 100 µl of radioimmunoprecipitation assay buffer with protease and phosphatase buffers.
(§3) Protein estimation was done using a Bradford assay under the following conditions: • A Western Blot was stripped with 6 M guanidine hydrochloride after p-Src protein blocking to probe with total Src protein. • 10% SDS-PAGE 10 well Blocking: 5% bovine serum albumin for p-Src blot. • P-Src-Tyr416 (GeneTex GTX81151) Rb: 1:1000 in 5% bovine serum albumin, Overnight. • Total Src (Cell Signaling Technology 2108S ) Rb mAb 1:1000 overnight in 5% milk. • GAPDH (Invitrogen# AM4300) : 1:5000 in 5% milk overnight. • Wash: 4x for 5 minutes each with 1x TBST. • Developed using 50% femto for the p-Src protein and homemade ECL substrate for total Src and GAPDH protein.
Example 4 evaluated endogenous Src and p-Src in 10 µM lidocaine treated mouse KPC-105 cells at different time points.
Example 5 evaluated endogenous Src and p-Src in mouse KPC-105 cells treated with 10 10 µM lidocaine for different time points, and increasing doses of methylnaltrexone after one hour of incubation. Western Blot banding patterns were generated using 15 µg /lane (NP40 lysates) 10% SDS PAGE over a 6-hour duration (lidocaine) and a 1-hour duration (methylnaltrexone).
• P-Src-Tyr416 (GeneTex # GTX81151) Rb: 1:1000 in 5% bovine serum albumin o/n at 4° C. • 10 µg /lane (NP40 lysates) 10% SDS PAGE • Total Src (CST # 2108S ) Rb mAb 1:1000 in 5% bovine serum albumin o/n at 4° C.
• P-Src-Tyr416 (GeneTex # GTX81151) Rb: 1:1000 in 5% bovine serum albumin 3 hours at room temperature • 10 µg /lane (NP40 lysates) 10% SDS PAGE • Total Src (CST # 2108S ) Rb mAb 1:1000 in 5% bovine serum albumin 3 hours at room temperature
• P-Src-Tyr416 (GeneTex # GTX81151) 1:2000 in 5% bovine serum albumin, o/n at 4° C. • Total Src (CST # 2108S ) 1:3000 in 5% bovine serum albumin, o/n at 4° C. • Vinculin (ProteinTech) 1:4000 in 5% milk o/n at 4° C.
• P-Src-Tyr416 (GeneTex # GTX81151) 1:2000 in 5% bovine serum albumin, o/n at 4C • Total Src (CST # 2108S ) 1:3000 in 5% bovine serum albumin, o/n at 4C

[4] = test system: LPS-challenged C57BL/6 mice; test: LPS-induced inflammation model, H&E histopathology of lungs and spleen; assay type: in vivo, mouse
Protocol: (§4) C57BL/6J mice (6-8 weeks) were purchased from Charles River Laboratories (USA) and acclimatized for at least 1 week before use. All mice were housed in a pathogen-free facility. The mice received LPS for 24 hours. Following 24 hours, mice were treated either with lidocaine alone or methylnaltrexone alone or a combination of both, as shown in Table 1.
(§5) At the conclusion of the study, the blood and tissue samples were collected for further study. The serum was used to determine pro-inflammatory cytokines using the LEGENDplex™ mouse inflammation panel (BioLegend, USA) kit followed by flow cytometry. The lungs and spleen tissue samples were used for hematoxylin and eosin (H&E) staining and immunohistochemical analyses for immune cells, including macrophages and natural killer (NK) cells, B cells, T cells, and its subsets. For histopathology and immunohistochemistry (IHC), tissue samples were prepared by cutting 4-µm sections from the paraffin blocks. IHC staining was performed by methods described earlier. The images were captured using bright field microscopy (Nikon Microscope). Two independent investigators evaluated the H&E and all immunohistochemical staining. For slide scoring, each investigator assessed the tissues and gave a score of 0 (no expression) to 4+ (strong uniform expression) as described previously. The data were expressed either as the mean ± SD or mean ± SEM by using Graph Pad Prism software.

[5] = test system: patients with advanced disease and cancer; conditions: regular clinical doses; cited from earlier work
[6] = test system: human pulmonary microvascular endothelial cell; conditions: with 5-FU and bevacizumab; cited from earlier work
p-Src / total Src [7] = test: Total Src and p-Src expression in MiaPaCa 2 human pancreatic cancer cell line (Western blot); assay type: cell-based; conditions: 10 µM lidocaine, 100 nM methylnaltrexone or both, one hour
Protocol: as §1
as §2, with “Example 11” for “Example 10”, “line (MiaPaCa 2). Experimental conditions were identical to Example 10.” for “line (AsPc 1).”

[8] = test system: immune cells in lungs and spleen of LPS-challenged mice; test: LPS-induced inflammation model, IHC staining of immune cells in lungs and spleen; assay type: in vivo, mouse; conditions: lungs and spleen sections
Protocol: as §4
as §5, with “The data were expressed either as the mean ± SD or mean ± SEM by using Graph Pad Prism software.” left out

[9] = test system: receptor protein tyrosine phosphatase; conditions: human endothelial cells, independent of µ-opioid receptor expression; cited from earlier work
[10] = test system: LPS-induced serum inflammatory cytokines; test: LPS-induced inflammation model, serum inflammatory cytokines (LEGENDplex, flow cytometry); assay type: in vivo, mouse; conditions: serum of treated mice
Protocol: as §4, §5
Gram-negative bacterial infections are the main cause of acute lung injury, and LPS, which is the main component of the Gram-negative bacteria cell wall, is the major stimulus for the release of inflammatory mediators. Therefore, we measured the effect of lidocaine alone, methylnaltrexone alone, or a combination of lidocaine and methylnaltrexone on LPS-induced serum inflammatory cytokines profiles. Mouse inflammatory cytokines were measured in serum of control and LPS-challenged mice treated with drugs as described in Table 1, using the LEGENDplex™ mouse inflammation panel (BioLegend, USA) kit followed by flow cytometry as per manufacturer’s specifications. […] However, serum tumor necrosis factor-alpha (TNF-α), monocyte chemoattractant protein 1 (MCP- 1), interleukin 10 (IL-10), interleukin 6 (IL-6), and interleukin 17A (IL-17A) levels were found decreased in mice challenged with LPS and treated with lidocaine and methylnaltrexone together (FIGS. 14C-G). IL-1, IL-6, IL-17A, MCP-1, and TNFα are pro- inflammatory cytokines associated with inflammatory signaling. Taken together, these findings indicate that combined treatment of lidocaine and methylnaltrexone has the potential to suppress inflammatory signaling.

Src protein [11] = test: p-Src activation in TNF-α treated human pancreatic cancer cell line (Western blot); assay type: cell-based; conditions: TNF-α 20 ng/ml
Protocol: (§6) On day 1, KPC-105 mouse and human pancreatic cancer cell lines were cultured until 300,000 cells per well in a 6 well plate were obtained. On day 2, each cell line was treated with 20 ng/ml or mouse or human TNF-α for 2-hours. Cells were then collected and washed with phosphate buffered saline and stored at -80° C. Cells were then lysed with 100 µl of radioimmunoprecipitation assay buffer with protease and phosphatase buffers.
as §3, with “estimation was then performed using a” for “estimation was done using a”, “10% SDS-PAGE with 15 well Blocking:” for “10% SDS-PAGE 10 well Blocking:”, “for p-Src blot P-Src-Tyr416 (GeneTex” for “for p-Src blot. • P-Src-Tyr416 (GeneTex”, “overnight in 5 % milk. •” for “overnight in 5% milk. •”, “homemade ECL for total” for “homemade ECL substrate for total”

Src protein [12] = test: p-Src activation in TNF-α treated KPC-105 mouse cell line (Western blot); assay type: cell-based; conditions: TNF-α 20 ng/ml
Protocol: as §6
as §3, with “estimation was then performed using a” for “estimation was done using a”, “10% SDS-PAGE with 15 well Blocking:” for “10% SDS-PAGE 10 well Blocking:”, “for p-Src blot P-Src-Tyr416 (GeneTex” for “for p-Src blot. • P-Src-Tyr416 (GeneTex”, “overnight in 5 % milk. •” for “overnight in 5% milk. •”, “homemade ECL for total” for “homemade ECL substrate for total”

[13] = Example 8, 10 µM lidocaine, 100 nM methylnaltrexone or both, different time points

Row | Compound | p-Src (p-Src / total Src [1]) | Src after Src normalization (p-Src / total Src [2]; 100 nM methylnaltrexone exposure, preliminary results) | p-Src activity (p-Src / total Src [2]; 10 µM lidocaine, 100 nM methylnaltrexone or both, one hour) | total Src (p-Src / total Src [3]; Example 5, 10 µM lidocaine over 6 hours, increasing doses of methylnaltrexone, 1 hour) | concentrations attenuating Src phosphorylation (p-Src / total Src [3]; Example 5, 1 hour incubation) | phosphorylation of Src (p-Src / total Src [3]; Example 6, 100 nM methylnaltrexone, different time points) | phosphorylation of Src (p-Src / total Src [3]; [13]) | total Src (p-Src / total Src [3]; [13]) | H&E staining, histopathology of lungs ([4]; LPS challenged mice, lungs) | histological examination of spleen ([4]; LPS challenged mice, spleen) | LPS-induced inflammation (overall conclusion) ([4]; mouse model, drug alone) | overall survival [5] | inhibition of VEGF-induced cell proliferation and migration [6] | p-Src (p-Src / total Src [7]) | F4/80 positive area (macrophages) [8] | receptor protein tyrosine phosphatase activity [9] | serum interferon-gamma (IFNγ) level [10] | serum interleukin 1 alpha (IL-1α) level [10] | time of maximum activation of Src protein (Src protein [11]) [min] | time of maximum activation of Src protein (Src protein [12]) [min]
1 | C[N@+]1(CC2CC2)CC[C@]23c4c5ccc(O)c4O[C@H]2C(=O)CC[C@@]3(O)[C@H]1C5 [methylnaltrexone] | initially decreased p-Src at 30 minutes and 1 hour | no increase in Src | attenuated p-Src activity | not affected | above 50 nM | attenuates phosphorylation of Src in KPC-105 cells starting at 2 hours | attenuated phosphorylation of Src after 1 hour of exposure | decreased total Src after 1 hour of exposure | perivascular edema and accumulation of mixed cell infiltration within blood, and lymphatic vessels | increased number of erythrocytes in the red pulp, along with mild edema | partially mitigate | increased overall survival | synergistic effect | attenuated p-Src | partially decreased | increased | insignificant changes | insignificant changes | – | –
2 | O=C1CC[C@@]2(O)[C@H]3Cc4ccc(O)c5c4[C@@]2(CCN3CC2CC2)[C@H]1O5 [naltrexone] | – | – | – | – | – | – | – | – | – | – | – | – | – | – | – | not | – | – | – | –
3 | TNF-α | – | – | – | – | – | – | – | – | – | – | – | – | – | – | – | – | – | – | 45 | 45
